How the values were obtained:
Gli1 = conditions: cultured keratinocytes; cited from earlier work
[1] = test system: transit amplifying cell clones and stem cell clones in tail skin epidermis; test: Topical treatment of tail skin of induced Ahcre^ERT R26^EYFP/wt mice, clonal fate by wholemount confocal imaging; type: in vivo, mouse; conditions: applied topically to tail skin, compared with vehicle only control
Procedure: The generation of Ahcre^ERT and R26^EYFP/EYFP mice has been described previously (Kemp et al (2004) Nucleic Acids Res 32, e92; Srinivas et al (2001) BMC Dev Biol 1, 4). To induce ere expression AhcreERT R26^EYFP/wt heterozygote animals were given a single intraperitoneal injection of 80 mg/kg β-napthoflavone (SIGMA) and 1 mg tamoxifen free base (MP Biomedicals) dissolved in corn oil. To prepare epidermal wholemounts, mice were killed, and then tail skin was cut into 0.5 cm sections and incubated in 5 mM EDTA/PBS for 4 h at 37 C. Epidermis was then peeled of the dermis and fixed in 4% paraformaldehyde for 1 h at room temperature. Fixed epidermal sheets were stored in PBS at 4C.
Epidermal sheets were blocked and permeabilized by incubation in PB buffer containing 0.5% BSA 0.25% Fish skin gelatin, 0.5% Triton X-100 and Goat/Donkey/Rat serum as appropriate in PBS for 1 h. Primary antibodies were diluted in PB buffer and epidermal sections incubated overnight at room temperature on rocking platform then washed 4×1 h in PBS/0.2% Tween 20. Secondary antibodies were diluted 1:250 in PB buffer, sections incubated overnight, then washed 4×1 h. Samples were rinsed in distilled water and mounted. […]

[2] = test system: BCC and squamous carcinoma (SCC); conditions: cited from earlier work
BCC = conditions: topical, irradiated patched heterozygote mice; cited from earlier work

CC1=C(/C=C/C(C)=C/C=C/C(C)=C/C(=O)O)C(C)(C)CCC1 [ATRA, all trans retinoic acid]
effect on Gli1 (Gli1): inhibition of Gli1 | effect on stem cell clones [1]: expansion of stem cell clones | effect on transit amplifying cell clones [1]: rapid depletion of transit amplifying cell clones

COc1cc(C)c(/C=C/C(C)=C/C=C/C(C)=C/C(=O)O)c(C)c1C [acitretin]
effect on SCC and BCC development ([2]; oral, renal transplant patients): may inhibit SCC and BCC development

CC1=C(/C=C/C(C)=C/C=C/C(C)=C\C(=O)O)C(C)(C)CCC1 [isotretinoin]
benefit in chemoprevention of BCC and squamous carcinoma (SCC) ([2]; clinical studies): no benefit

CC1=C(/C=C/C(C)=C/C=C/C(C)=C/CO)C(C)(C)CCC1 [retinol]
benefit in chemoprevention of BCC and squamous carcinoma (SCC) ([2]; clinical studies): no benefit

CCOC(=O)c1ccc(C#Cc2ccc3c(c2)C(C)(C)CCS3)nc1 [tazarotene]
effect on BCC ([2]; topical treatment, clinical studies): regression of BCC | number of BCC induced by UV or ionizing radiation (BCC): substantial decrease in the number of BCC
